Data: patent USRE31071E, “6-Aza-3H-1,4-benzodiazepines” (Deutsche Gold- und Silber-Scheideanstalt vormals Roessler, priority 1971, dated 1982)

Experiments:
mice = experiment: rotating rod test (ataxic activity); type: in vivo; settings: quotient of ataxic to anxiolytic activity, orally, should be as large as possible
From the text: Furthermore, there is given in this table the ataxic activity. The ratio of ataxic activity to the anxiolytic activity is of the greatest significance in using a material as an anxiolytic agent. This quotient should be as large as possible since an ataxic activity is undesirable. Ataxic activity means that the coordination of the muscular movements is disturbed--ataxicdisturbance of the muscular coordination. This means at the dosage at which a marked anxiolytic acitvity is present there should not be found a noteworthy ataxice. The toxicity, in case the data exists above the ataxic activity, is no longer important since the amount which is toxic is always considerably higher than the amount at which 50% (ED50) of the animals have an ataxic effect. The ataxic effect was measured on mice on the pattern of the rotating rod.
In the rotating rod test the animals (mice) were firest placed on a rotating rod 15 minutes after the application of the test material and then were placed on the rotating rod every 15 minutes and the animals which fell down within 2 minutes measured positive. From the number of animals which fell down expressed in percent there were drawn time-effect curves and the areas defined by it entered as percent effect in a probability network, the dosage-effect-line prepared and the ED50 read off. The ED50 mg/kg body weight of the mouse again specifies the dosage at which 50% of all the animals show a typical ataxic effect.

[1] = First Int. Pharmacological Meeting, Vol. 7; cited from earlier work
[2] = in words; cited from earlier work
[3] = J. Amer. Med. Ass. Vol. 170 (1959); cited from earlier work

| Structure (SMILES) | ED50 Rotating Rod / ED50 Card. Shock (mice) | other results |
| --- | --- | --- |
| CC1N=C(c2ccccc2)c2nc(Cl)ccc2NC1=O (racemic) [Example 4, 3-Methyl-5-phenyl-6-aza-7-chloro-1,2-dihydro-3H-1,4-benzodiazepinone-(2)] | 4.3 | – |
| O=C1CN=C(c2ccccc2Cl)c2nc(Cl)ccc2N1 [Example 6, 5-(o-Chlorophenyl)-6-aza-7-chloro-1,2-dihydro-3H-1,4-benzodiazepinone-(2)] | 16.5 | – |
| CN1C(=O)CN=C(c2ccccc2F)c2nc(Cl)ccc21 [Example 9, 1-Methyl-5-(o-fluorophenyl)-6-aza-7-chloro-1,2-dihydro-3H-1,4-benzodiazepinone-(2)] | 6.1 | – |
| O=C1CN=C(c2ccccc2F)c2nc(Cl)ccc2N1 [Example 10, 5-(-Fluorophenyl)-6-aza-7-chloro-1,2-dihydro-3H-1,4-benzodiazepinone-(2)] | 10.4 | – |
| O=C(O)CCC(=O)OC1N=C(c2ccccc2Cl)c2nc(Cl)ccc2NC1=O (stereo not drawn) [Example 12] | 13.5 | – |
| O=C1Nc2ccc(Cl)nc2C(c2ccccc2Cl)=NC1O (stereo not drawn) [Example 13, 3-Hydroxy-5-o-chlorophenyl-6-aza-7-chloro-1,2-dihydro-3H-1,4-benzodiazepinone-(2)] | 15.0 | – |
| CC(=O)OC1N=C(c2ccccc2Cl)c2nc(Cl)ccc2N(C(C)=O)C1=O (stereo not drawn) [Example 15, 1-Acetyl-3-acetoxy-5-(o-chlorophenyl)-6-aza-7-chloro-1,2-dihydro-3H-1,4-benzodiazepinone-(2)] | 6.7 | – |
| CN1C(=O)CN=C(c2ccccc2)c2nc(Cl)ccc21 [Example 17, 1-Methyl-5-phenyl-6-aza-7-chloro-1,2-dihydro-3H-1,4-benzodiazepinone-(2)] | 6.2 | – |
| C=CCN1C(=O)CN=C(c2ccccc2)c2nc(Cl)ccc21 [Example 18, 1-Allyl-5-phenyl-6-aza-7-chloro-1,2-dihydro-3H-1,4-benzodiazepinone-(2)] | 8.2 | – |
| O=C1CN=C(c2ccccc2)c2nc(Cl)ccc2N1CC1CC1 [Example 19] | 7.7 | – |
| CN1C(=O)CN=C(c2ccccc2Cl)c2nc(Cl)ccc21 [Example 21, 1-Methyl-5-(o-chlorophenyl)-6-aza-7-chloro-1,2-dihydro-3H-1,4-benzodiazepinone-(2)] | 10.2 | – |
| CN1C(=S)CN=C(c2ccccc2Cl)c2nc(Cl)ccc21 [Example 24, 1-Methyl-5-(o-chlorophenyl)-6-aza-7-chloro-1,2-dihydro-3H-1,4-benzodiazepinthione-(2)] | 12.5 | – |
| CC(NN)c1ccccc1 (stereo not drawn) [alpha phenyl-ethyl hydrazine] | – | stimulating activity / sedative action [1]: strong stimulating activity |
| CN(C)CCOC(C)(c1ccccc1)c1ccc(Cl)cc1 (stereo not drawn) [chlorphenoxamine] | – | antihistamine activity [2]: antihistamine activity reduced; anticholinergic activity [3]: strengthening of its anticholinergic activity |
